Legend:
[1] = system: Huh7; test: CellTiter-Glo cancer cell growth inhibition, Huh7; format: cell-based
From the text: (§1) The CellTiter-Glo® Luminescent Cell Viability Assay is a sensitive homogeneous method to determine the number of viable cells in culture, Detection is based on using the luciferase reaction to measure the amount of ATP from viable cells. The amount of ATP in cells correlates with cell viability. Within minutes after a loss of membrane integrity, cells lose the ability to synthesize ATP, and endogenous ATPases destroy any remaining ATP; thus the levels of ATP fall precipitously. The CellTiter-Glo® Reagent does three things upon addition to cells. It lyses cell membranes to release ATP; it inhibits endogenous ATPases, and it provides luciferin, luciferase and other reagents necessary to measure ATP using a bioluminescent reaction. The unique properties of a proprietary stable luciferase.
(§2) All assays were performed by Reaction Biology Corporation (Malvern, Pa.) or ChemDiv, Inc. (San Diego, Calif.). All cell lines were purchased from American Type Culture Collection (ATCC, Manassas, Va.), except Huh 7 (RIKEN, Toyo, Japan) and HepaRG (Life Technologies, Carlsbad, Calif.).
(§3) Stock solutions ([…]) were diluted with cell culture media to produce 500× serial dilutions and […] of final compound dilutions were added to cells in assay plates to screen a series of 10 doses starting at […]. Final DMSO concentration was 0.2%. Assay plates are centrifuged at 100 rpm, 1 minute and kept at 37° C., 5% CO2, humidified atmosphere. […] Luminescence intensity was measured for each well using the Tecan M 1000 microplate reader after 5 min of incubation with CellTiter-Glo Reagent. The number of viable cells in culture was determined based on quantitation of the ATP present in each culture well. […] The EC50 curves were plotted and […] values were calculated using the GraphPad Prism 4 program based on a sigmoidal dose-response equation.

[2] = system: A673; test: CellTiter-Glo cancer cell growth inhibition, A673; format: cell-based
From the text: as §1, §2, §3

[3] = system: HepG2; test: CellTiter-Glo cancer cell growth inhibition, HepG2; format: cell-based, human
From the text: as §1, §2, §3

[4] = system: HepaRG; test: CellTiter-Glo cancer cell growth inhibition, HepaRG; format: cell-based; conditions: Homo sapiens, 72 h
From the text: as §1, §2, §3

[5] = target: T1, PIM2 (Homo sapiens, UniProt Q9P1W9); test: LANCE Ultra kinase assay, PIM2; format: biochemical
T1 construct: purchased ProQinase, Freiburg, Germany 0223-0000-1
From the text: (§4) The second assay used was Perkin Elmer's LANCE® Ultra kinase assay which uses a ULight™-labeled peptide substrate and an appropriate Europium-labeled anti-phospho antibody. When the substrate becomes phosphorylated by a kinase of interest, the phosphorylated site on the substrate is recognized by the Europium-labeled anti-phospho antibody. […] The intensity of light emission is proportional to the level of ULight peptide phosphorylation. A kinase inhibitor reduces the FRET signal, thus providing an accurate and sensitive measure of inhibition potency.
(§5) The assay was performed in 384-well plates in two steps: PIM kinases were mixed with the ULight-substrate (CREBtide) in buffer and incubated for 10 min. Subsequently, ATP and molecules of the present disclosure were added in a kinase buffer at the appropriate concentration and the reactions were incubated for 1 hour, at room temperature in the dark. • After 1 h EDTA was added to stop the kinase reaction, Eu-W1024-labeled anti-phosphoserine-CREB (Ser133) Antibody (anti-phosphoCREBtide specific antibody) was added to the reaction in LANCE Detection buffer. The mixture was allowed to incubate for 30 min to allow binding of the antibody to the phosphorylated site before the plate was read using a Tecan microplate reader
(§6) Kinase Assay Buffer—50 mM HEPES pH7.0.1 mM EGTA, 10 mM MgCl2, 0.01% BRU-35.
(§7) The inhibitory activity of each compound against PIM kinases was measured with the LANCE® Ultra Kinase Assays by ChemDiv, Inc. (San Diego, Calif.).

[6] = target: T2, PIM1 (Homo sapiens, UniProt P11309); test: LANCE Ultra kinase assay, PIM1; format: biochemical
T2 construct: purchased ProQinase, Freiburg, Germany 0186-0000-1
From the text: as §4, §5, §6, §7

[7] = target: T3, PIM3 (Homo sapiens, UniProt Q86V86); test: LANCE Ultra kinase assay, PIM3; format: biochemical; conditions: for IC50: LANCE assay; for Selectivity among PIM1-3 (EC50 plots, FIGS. 2A, 2B): LANCE Ultra assay
T3 construct: purchased SignalChem, Richmond, Canada P37-10BG
From the text: as §4, §5, §6, §7

[8] = system: Hepa1-6 mouse liver cancer cells; test: Hepa1-6 liver cancer xenograft mice; format: in vivo
Procedure: Hepa1-6 mouse liver cancer cells are suspended in Hank's balanced salt solution (HBSS)(2×10^7 cells/mL), and the suspension (100 μL) was subcutaneously injected into the back flank of six female CD57 immunocompetent mice. After growing for 21 days, the tumors were resected, cut into small pieces, and inserted under the skin on each back flank of twelve female CD57 mice (24 tumors total). Mice were maintained for 15 days following tumor insertion to establish robust and consistent tumor growth. The mice were randomly split into six groups of two mice each (two tumors per mouse). Alter establishment of the Hepa1-6 xenografts in CD57 mice, tumor dimensions were measured every 2 days using micrometer calipers. Four groups were treated with compound 49 (PO: 25 mg/kg and 50 mg/k; IP: 10 mg/kg and 25 mg/kg) by both oral (PO, gavage) and intraperitoneal (IP) administration once per day (q.d.) and two control groups were administered vehicle only through the same routes for 10 consecutive days. Mice are weighed daily, starting from the date of Hepa1-6 tumor insertion (day 0). At 25 days after subcutaneous inoculation with Hepa1-6 tumors, mice were euthanized via carbon dioxide asphyxiation and all tumors were excised immediately following death, weighed and measured, and then snap-frozen in liquid nitrogen. Tumor volume (TV) was calculated by the following formula: TV=0.5ab^2, where a is tumor length in mm, and b is tumor width in mm. […] Body weight of mice in all groups was maintained within 10% of day 0 baseline.

[9] = growth inhibition, 72 hours, CellTiter-Glo

T1 sequence (Q9P1W9 whole entry): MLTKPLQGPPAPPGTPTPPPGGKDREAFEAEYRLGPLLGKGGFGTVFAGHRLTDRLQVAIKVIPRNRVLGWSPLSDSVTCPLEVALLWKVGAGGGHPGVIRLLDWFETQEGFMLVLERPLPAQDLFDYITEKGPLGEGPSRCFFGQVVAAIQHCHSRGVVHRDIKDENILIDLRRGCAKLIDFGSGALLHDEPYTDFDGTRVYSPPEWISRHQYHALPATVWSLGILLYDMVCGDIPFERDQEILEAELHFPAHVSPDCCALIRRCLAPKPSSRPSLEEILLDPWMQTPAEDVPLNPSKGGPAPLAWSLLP
T2 sequence (P11309 whole entry): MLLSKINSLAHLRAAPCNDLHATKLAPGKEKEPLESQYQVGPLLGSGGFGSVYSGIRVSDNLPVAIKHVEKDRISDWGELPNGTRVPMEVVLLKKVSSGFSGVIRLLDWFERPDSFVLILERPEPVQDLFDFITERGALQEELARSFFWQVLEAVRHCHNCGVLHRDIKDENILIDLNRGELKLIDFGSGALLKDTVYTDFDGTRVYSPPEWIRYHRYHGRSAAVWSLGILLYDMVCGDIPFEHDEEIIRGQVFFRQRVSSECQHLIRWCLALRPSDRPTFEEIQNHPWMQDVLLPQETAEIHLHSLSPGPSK

Row | Structure (SMILES) | EC50 ([1]; Homo sapiens, Huh-7, 72 h) [nM] | EC50 ([2]; Homo sapiens, A673, 72 h) [nM] | EC50 ([3]; Homo sapiens, HepG2, 72 h) [nM] | EC50 [4] [nM] | IC50 ([5]; ATP 0.1 mM) [nM] | IC50 ([5]; ATP 1 mM) [nM] | IC50 ([6]; ATP 0.1 mM) [nM] | IC50 ([6]; ATP 1 mM) [nM] | IC50 ([7]; ATP 0.1 mM) [nM] | IC50 ([7]; ATP 1 mM) [nM] | other results
1 | CNC(=O)c1cc(Oc2ccc(NC(=O)Nc3ccc(Cl)c(C(F)(F)F)c3)cc2)ccn1 [Sorafenib, reference compound] | 2600 | 18000 | 2300 | 1400 |  |  |  |  |  |  | 
2 | O=C1NC(=O)c2c1c1c3cc(F)c(O)cc3[nH]c1c1c2c2cc(F)c(O)cc2n1CCN1CCOCC1 [Compound 37, 3,9-difluoro-2,10-dihydroxy-12-(2-morpholinoethyl)-12,13-dihydro-5H-indolo[2,3-a]pyrrolo[3,4-c]carbazole-5,7(6H)-dione] | 77 | 2.2 | 54 | 16 | 13 | 180 | 0.7 | 0.93 | 1.1 | 5 | 
3 | O=C1NC(=O)c2c1c1c3cc(F)ccc3[nH]c1c1c2c2cc(F)ccc2n1CCN1CCOCC1 [Compound 49, 3,9-difluoro-12-(2-morpholin-4-ylethyl)-12,13-dihydro-5H-indolo[2,3-a]pyrrolo[3,4-c]carbazole-5,7(6H)-dione] | 100 | 57 | 40 | > 10000 | > 1000 |  | 4 |  | 0.7 |  | Reduction of tumor size relative to control tumors ([8]; IP injection 25 mg/kg q.d., 10 days, CD57 mice): up to 50%; Tumor reduction ([8]; PO dosing (25 mg/kg and 50 mg/kg) q.d., CD57 mice): No tumor reduction was observed; Body weight change vs day 0 baseline ([8]; all groups (PO 25, 50 mg/kg; IP 10, 25 mg/kg)): ≤ 10%; Tumor reduction ([8]; lower doses (IP 10 mg/kg) q.d., CD57 mice): No tumor reduction was observed
4 | CNC(=O)c1cc(Oc2ccc(NC(=O)Nc3ccc(Cl)c(C(F)(F)F)c3)c(F)c2)ccn1 [Regorafenib, reference compound] | 4400 | 30000 | 4300 | 2300 |  |  |  |  |  |  | 
5 | N[C@@H]1CCCN(c2c(/C=C3\SC(=O)NC3=O)cccc2-c2ccccc2)C1 [AZD-1208, reference compound] |  |  |  |  |  |  |  |  |  |  | EC50 [1, 9]: 13500 nM; EC50 [2, 9]: 19700 nM; EC50 [3, 9]: 28000 nM
6 | O=C1NC(=O)c2c1c1c3ccc(O)cc3[nH]c1c1c2c2ccc(O)cc2n1CCN1CCCCC1 [Compound 56, 2,10-dihydroxy-12-(2-piperidinoethyl)-12,13-dihydro-5H-indolo[2,3-a]pyrrolo[3,4-c]carbazole-5,7(6H)-dione] | 484 | 35 | 315 | 77 | 50 |  | 0.7 |  | 1 |  | 
7 | O=C1NC(=O)c2c1c1c3cc(F)ccc3[nH]c1c1c2c2cc(F)ccc2n1CCN1CCCCC1 [Compound 51, 3,9-difluoro-12-(2-piperidin-1-ylethyl)-12,13-dihydro-5H-indolo[2,3-a]pyrrolo[3,4-c]carbazole-5,7(6H)-dione] |  |  |  |  | > 1000 |  | 3 |  | 0.8 |  | 
8 | O=C1NC(=O)c2c1c1c3ccc(O)cc3[nH]c1c1c2c2ccc(O)cc2n1CCN1CCOCC1 [Compound 32, 2,10-dihydroxy-12-(2-morpholinoethyl)-12,13-dihydro-5H-indolo[2,3-a]pyrrolo[3,4-c]carbazole-5,7(6H)-dione] | 240 | 37 | 570 | 250 | 36 | 480 | 0.81 | 2 | 1.2 | 4.9 | Selectivity among PIM1-3 (EC50 plots, FIGS. 2A, 2B) [7]: PIM1 and PIM3 selectivity
9 | C[C@@H]1CCC[C@H](C)N1CCn1c2cc(O)c(F)cc2c2c3c(c4c5cc(F)c(O)cc5[nH]c4c21)C(=O)NC3=O [Compound 59, 12-{2-[(2R,6S)-2,6-dimethylpiperidin-1-yl]ethyl}-3,9-difluoro-2,10-dihydroxy-12,13-dihydro-5H-indolo[2,3-a]pyrrolo[3,4-c]carbazole-5,7(6H)-dione] | 925 | 3.1 | 266 | 20 | 37 |  | 0.1 |  | 3 |  | 
10 | O=C1NC(=O)c2c1c1c3ccncc3[nH]c1c1c2c2ccc(O)cc2n1CCN1CCOCC1 [Compound 41] | 100 | 4.4 |  |  |  | 674 |  | 0.42 |  | 1.6 | 
11 | C[C@@H]1CCC[C@H](C)N1CCn1c2ccc(F)cc2c2c3c(c4c5cc(F)ccc5[nH]c4c21)C(=O)NC3=O [Compound 53, 12-{2-[(2R,6S)-2,6-dimethylpiperidin-1-yl]ethyl}-3,9-difluoro-12,13-dihydro-5H-indolo[2,3-a]pyrrolo[3,4-c]carbazole-5,7(6H)-dione] |  |  |  |  | > 1000 |  | 3 |  | 2.4 |  | Selectivity among PIM1-3 (EC50 plots, FIGS. 2A, 2B) [7]: PIM1 and PIM3 selectivity
12 | O=C1NC(=O)c2c1c1c3ccc(O)cc3[nH]c1c1c2c2ccncc2n1CCN1CCOCC1 [Compound 42] | 100 | 5 |  |  |  | 18 |  | 0.16 |  | 1.9 | 

— patent US20220274997A1, “PIM KINASE INHIBITOR COMPOSITIONS AND USES THEREOF” (Snap Bio, Inc., priority 2019, published 2022)
